Results reported in patent US20060073154A1 (priority 2001, published 2006).

What was measured:
[1] = tested on: streptococcal strain D471 adherence to Detroit 562 pharyngeal cells; assay type: cell-based, S. pyogenes
[2] = tested on: strain JRS75 adherence to Detroit 562 pharyngeal cells; assay: Pharyngeal cell adherence assay with isogenic M-negative mutant; assay type: cell-based, S. pyogenes; conditions: bacteria preincubated with sialic acid
Experimental: Pharyngeal cell adherence and invasion assay. Streptococcal adherence to and invasion of the human pharyngeal cell line, Detroit 562, was assayed by modification of a procedure described previously (Talbot, U. M., et al., Infect. Immun. 64:3772-3777, 1996). Overnight cultures of streptococci were pelleted by centrifugation and washed twice in sterile PBS. The cultures were resuspended in MEM and diluted to a final concentration of 5×10^7 CFU/ml, and 1 ml aliquots were inoculated into each well containing washed Detroit cell monolayers. At least 3 wells were used for each bacterial strain or culture condition. Following a 3 h incubation period with the bacteria at 37° C., the monolayers were washed three times in PBS.
For the bacterial invasion assay, 1 ml of MEM supplemented with penicillin (10 μg/ml) and gentamicin (200 μg/ml) was added to each well (to kill extracellular bacteria) and incubated for 1 h at 37° C. […] The total number of adherent streptococci was calculated as the difference between the total number of adherent and invasive bacteria and the number of invasive bacteria alone.
Effect of monosaccharides on streptococcal adherence to pharyngeal cells. The effect of various monosaccharides on streptococcal adherence to pharyngeal cell monolayers was assessed in inhibition assays. […]

CC(=O)N[C@H]1[C@H]([C@H](O)[C@H](O)CO)O[C@@](O[C@H]2[C@@H](O)[C@@H](CO)O[C@@H](O[C@H]3[C@H](O)[C@@H](O)C(O)O[C@@H]3CO)[C@@H]2O)(C(=O)O)C[C@@H]1O (stereo partly drawn) [3′SL, NeuAcα2-3Galβ1-4Glc]
effect on adherence of strain D471 to cultured pharyngeal cells [1]: no significant effect

CC(=O)NC1C(O)CC(OCC2OC(OC3C(CO)OC(O)C(O)C3O)C(O)C(O)C2O)(C(=O)O)OC1C(O)C(O)CO (stereo not drawn) [6′SL, NeuACα2-6Galβ1-4Glc]
reduced binding of strain D471 to pharyngeal cells [1]: approximately 85%

CC(=O)N[C@H]1[C@H]([C@H](O)[C@H](O)CO)OC(O)(C(=O)O)C[C@@H]1O (stereo partly drawn) [sialic acid, N-acetylneuraminic acid]
effect on adherence of JRS75 (M-negative mutant) to pharyngeal cells [2]: not affected
effect on adherence of strain D471 to pharyngeal cells [1]: significantly decreased

transferrin: sialylated glycoprotein whose oligosaccharides terminate only in α2-6 linked sialic acid
reduced adherence of strain D471 to cultured pharyngeal cells [1]: approximately 90%

B1: Fetuin: sialylated glycoprotein containing both α2-3 and α2-6 sialic acid linkages (protein, UniProt P12763 19-359, looked up)
Alpha-2-HS-glycoprotein: IPLDPVAGYKEPACDDPDTEQAALAAVDYINKHLPRGYKHTLNQIDSVKVWPRRPTGEVYDIEIDTLETTCHVLDPTPLANCSVRQQTQHAVEGDCDIHVLKQDGQFSVLFTKCDSSPDSAEDVRKLCPDCPLLAPLNDSRVVHAVEVALATFNAESNGSYLQLVEISRAQFVPLPVSVSVEFAVAATDCIAKEVVDPTKCNLLAEKQYGFCKGSVIQKALGGEDVRVTCTLFQTQPVIPQPQPDGAEAEAPSAVPDAAGPTPSAAGPPVASVVVGPSVVAVPLPLHRAHYDLRHTFSGVASVESSSGEAFHVGKTPIVGQPSIPGGPVRLCPGRIRYFKI
decrease of adherence of strain D471 to pharyngeal cells [1]: approximately 30%
